This note sets out measurements from ChEMBL document CHEMBL1147177, “Identification of tyrosinase inhibitors from Marrubium velutinum and Marrubium cylleneum” (Bioorg Med Chem, 2007).

What is called inhibition is the change of the read-out against control, counted positive when it falls.

Assay [1] has as its target T1, Tyrosinase (Agaricus bisporus) (UniProt O42713).
T1 sequence (whole entry): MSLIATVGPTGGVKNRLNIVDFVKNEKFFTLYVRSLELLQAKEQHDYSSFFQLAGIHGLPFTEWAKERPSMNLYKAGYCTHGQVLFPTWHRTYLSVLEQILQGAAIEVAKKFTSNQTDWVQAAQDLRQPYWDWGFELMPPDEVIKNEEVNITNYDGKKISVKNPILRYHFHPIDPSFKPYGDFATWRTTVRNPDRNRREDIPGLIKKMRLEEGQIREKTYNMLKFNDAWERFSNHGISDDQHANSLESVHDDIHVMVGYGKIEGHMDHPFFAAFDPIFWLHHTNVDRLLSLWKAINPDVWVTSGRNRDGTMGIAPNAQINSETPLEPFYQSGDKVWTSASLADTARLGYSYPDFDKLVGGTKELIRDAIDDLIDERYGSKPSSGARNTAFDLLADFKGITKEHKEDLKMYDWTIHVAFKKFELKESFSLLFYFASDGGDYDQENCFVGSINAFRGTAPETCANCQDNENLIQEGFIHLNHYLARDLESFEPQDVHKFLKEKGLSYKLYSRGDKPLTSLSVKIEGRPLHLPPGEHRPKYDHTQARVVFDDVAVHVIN
The assay can be described thus: Inhibition of diphenolase activity of mushroom tyrosinase at 0.083 mM.

The target in assay [2] is T1, Tyrosinase (Agaricus bisporus). Description: Inhibition of diphenolase activity of mushroom tyrosinase at 0.231 mM.
Assay [3] has the same target. Description: Inhibition of diphenolase activity of mushroom tyrosinase at 0.042 mM.
For assay [4] the target is unchanged. Description: Inhibition of diphenolase activity of mushroom tyrosinase at 0.051 mM.
Assay [5] shares this target. Description: Inhibition of diphenolase activity of mushroom tyrosinase at 0.074 mM.
Assay [6] shares this target. Description: Inhibition of diphenolase activity of mushroom tyrosinase at 0.052 mM.
For assay [7] the target is unchanged. Description: Inhibition of diphenolase activity of mushroom tyrosinase at 0.035 mM.
Assay [8] shares this target. Description: Inhibition of diphenolase activity of mushroom tyrosinase at 0.064 mM.
Assay [9] has the same target. The assay can be described thus: Inhibition of diphenolase activity of mushroom tyrosinase at 0.053 mM.
Assay [10] has the same target. Description: Inhibition of diphenolase activity of mushroom tyrosinase at 0.049 mM.
Assay [11] has the same target. Description: Inhibition of diphenolase activity of mushroom tyrosinase at 0.050 mM.
The target is the same in assay [12]. Description: Inhibition of diphenolase activity of mushroom tyrosinase at 0.041 mM.
Assay [13] shares this target. The assay can be described thus: Inhibition of diphenolase activity of mushroom tyrosinase at 0.070 mM.
The target is the same in assay [14]. The assay can be described thus: Inhibition of diphenolase activity of mushroom tyrosinase at 0.036 mM.
Assay [15] has the same target. Description: Inhibition of diphenolase activity of mushroom tyrosinase at 0.055 mM.
Assay [16] shares this target. The assay can be described thus: Inhibition of diphenolase activity of mushroom tyrosinase at 0.044 mM.
For assay [17] the target is unchanged. The assay can be described thus: Inhibition of diphenolase activity of mushroom tyrosinase at 0.056 mM.
The target is the same in assay [18]. The assay can be described thus: Inhibition of diphenolase activity of mushroom tyrosinase at 0.093 mM.
Assay [19] shares this target. Description: Inhibition of diphenolase activity of mushroom tyrosinase at 0.011 mM.
Assay [20] shares this target. Description: Inhibition of diphenolase activity of mushroom tyrosinase at 0.034 mM.

Compound `COc1cc(-c2cc(=O)c3c(O)cc(O)cc3o2)ccc1O` displayed an inhibition in assay [1] of 16.4%.

`C[N+]1(C)CCC[C@@H]1C(=O)[O-]` showed an inhibition in [2] of 11.1%.

Take `COc1ccc(CCO[C@@H]2O[C@H](CO)[C@@H](OC(=O)/C=C/c3ccc(O)c(OC)c3)[C@H](O[C@@H]3O[C@@H](C)[C@H](O)[C@@H](O)[C@H]3O[C@@H]3OC[C@@H](O)[C@@H](O)[C@@H]3O)[C@H]2O)cc1O`: the inhibition in [3] turned out to be 9.48%.

In assay [4], `O=c1c(O)c(-c2ccc(O)c(O)c2)oc2cc(O)cc(O)c12` registered an inhibition of 49.7%.

`O=c1c(O[C@@H]2O[C@H](CO)[C@@H](O)[C@H](O)[C@H]2O)c(-c2ccc(O)cc2)oc2cc(O)cc(O)c12` showed an inhibition in assay [5] of 24.2%. The compound `C[C@H]1O[C@H](O[C@@H]2[C@@H](O)[C@H](OCCc3ccc(O)c(O)c3)O[C@H](CO[C@H]3O[C@@H](CO)[C@H](O)[C@@H](O)[C@@H]3O)[C@H]2OC(=O)/C=C/c2ccc(O)c(O)c2)[C@@H](O)[C@@H](O)[C@@H]1O` came in with an inhibition in [3] of 17.5%. In assay [6], `COc1ccc(CCO[C@@H]2O[C@H](CO)[C@@H](OC(=O)/C=C/c3ccc(O)c(OC)c3)[C@H](O[C@@H]3O[C@@H](C)[C@H](O)[C@@H](O)[C@H]3O)[C@H]2O)cc1O` gave an inhibition of 20.6%. Turning to `COc1ccc(CCO[C@@H]2O[C@H](CO[C@@H]3O[C@H](CO)[C@@H](O)[C@H](O)[C@H]3O)[C@@H](OC(=O)/C=C/c3ccc(O)c(OC)c3)[C@H](O[C@@H]3O[C@@H](C)[C@H](O)[C@@H](O)[C@H]3O[C@@H]3OC[C@@H](O)[C@@H](O)[C@@H]3O)[C@H]2O)cc1O`, the inhibition in [7] was determined as 13.2%. `COc1cc(-c2oc3cc(O)cc(O)c3c(=O)c2O[C@@H]2O[C@H](COC(C)=O)[C@@H](O)[C@H](O)[C@H]2O)ccc1O`: the inhibition in [8] was 23.3%.

For `COc1cc(-c2oc3cc(O)cc(O)c3c(=O)c2O[C@@H]2O[C@H](COC(=O)/C=C/c3ccc(O)cc3)[C@@H](O)[C@H](O)[C@H]2O)ccc1O`, the inhibition in assay [9] was found to be 21.1%. `COc1cc(C[C@@H]2CO[C@@H](c3ccc(O[C@H]4O[C@@H](CO)[C@H](O)[C@@H](O)[C@@H]4O)c(OC)c3)[C@@H]2CO)ccc1O[C@H]1O[C@@H](CO)[C@H](O)[C@@H](O)[C@@H]1O`: the inhibition in assay [10] was 11.1%.

Consider `COc1ccc(-c2cc(=O)c3c(OC)c(O)c(OC)cc3o2)cc1`, for which the inhibition in [11] worked out at 4.24%.

As to `COc1ccc(CCO[C@@H]2O[C@H](CO[C@H]3O[C@@H](CO)[C@H](O)[C@@H](O)[C@@H]3O)[C@@H](OC(=O)/C=C/c3ccc(O)c(OC)c3)[C@H](O[C@H]3O[C@H](C)[C@@H](O)[C@H](O)[C@@H]3O)[C@H]2O)cc1O`, the inhibition in assay [12] came to 22.6%. In assay [10], `O=C(/C=C/c1ccc(O)c(O)c1)O[C@@H]1C[C@](O)(C(=O)O)C[C@@H](O)[C@H]1O` returned an inhibition of 7.78%.

Compound `COc1cc(-c2oc3cc(O)cc(O)c3c(=O)c2O[C@@H]2O[C@H](CO[C@@H]3O[C@@H](C)[C@H](O)[C@@H](O)[C@H]3O)[C@@H](O)[C@H](O)[C@H]2O)ccc1O` displayed an inhibition in assay [9] of 13.1%.

`COc1cc(-c2oc3cc(O)cc(O)c3c(=O)c2O[C@@H]2O[C@H](CO)[C@@H](O)[C@H](O)[C@H]2O)ccc1O`: the inhibition in assay [13] came to 24.2%.

`COc1ccc(-c2cc(=O)c3c(O)c(O)c(OC)cc3o2)cc1` returned an inhibition in assay [9] of 2.78%. For `COc1ccc(-c2cc(=O)c3c(OC)c(OC)c(OC)cc3o2)cc1`, in assay [10], the inhibition stood at 3.23%. Turning to `COc1cc([C@@H]2OC[C@@H](Cc3ccc(O[C@H]4O[C@@H](CO)[C@H](O)[C@@H](O)[C@@H]4O)c(OC)c3)[C@H]2CO)ccc1O`, the inhibition in assay [8] is 12.3%. In assay [14], `C[C@@H]1O[C@@H](O[C@@H]2[C@@H](O)[C@H](OCCc3ccc(O)c(O)c3)O[C@H](CO[C@@H]3O[C@H](CO)[C@@H](O)[C@H](O)[C@H]3O)[C@H]2OC(=O)/C=C/c2ccc(O)c(O)c2)[C@H](O[C@@H]2OC[C@@H](O)[C@@H](O)[C@@H]2O)[C@H](O)[C@H]1O` gave an inhibition of 12.4%. In the case of `O=c1cc(-c2ccc(O)cc2)oc2c(O)c(O)c(O)c(O)c12`, the inhibition in assay [15] turned out to be 5.21%.

Take `COc1cc(-c2cc(=O)c3c(O)cc(O[C@@H]4O[C@H](COC(=O)/C=C/c5ccc(O)cc5)[C@@H](O)[C@H](OC(=O)/C=C/c5ccc(O)cc5)[C@H]4O)cc3o2)ccc1O`: the inhibition in assay [16] was 15.6%. Consider `O=C(/C=C/c1ccc(O)cc1)OC[C@H]1O[C@@H](Oc2c(-c3ccc(O)c(O)c3)oc3cc(O)cc(O)c3c2=O)[C@H](O)[C@@H](O)[C@@H]1O`, for which, in assay [15], the inhibition is 21.9%. Regarding `C[C@@H]1O[C@@H](O[C@@H]2[C@@H](O)[C@H](OCCc3ccc(O)c(O)c3)O[C@H](CO)[C@H]2OC(=O)/C=C/c2ccc(O)c(O)c2)[C@H](O[C@@H]2OC[C@@H](O)[C@@H](O)[C@@H]2O)[C@H](O)[C@H]1O`, the inhibition in [16] was 12%. Consider `C[C@@H]1O[C@@H](OC[C@H]2O[C@@H](Oc3c(-c4ccc(O)cc4)oc4cc(O)cc(O)c4c3=O)[C@H](O)[C@@H](O)[C@@H]2O)[C@H](O)[C@H](O)[C@H]1O`, for which the inhibition in assay [17] was 16.1%. Turning to `O=c1cc(-c2ccc(O)c(O)c2)oc2cc(O[C@@H]3O[C@H](CO)[C@@H](O)[C@H](O)[C@H]3O)cc(O)c12`, the inhibition in assay [5] amounted to 27.4%. The compound `COc1cc(C[C@@H]2CO[C@@H](c3ccc(O[C@H]4O[C@@H](CO)[C@H](O)[C@@H](O)[C@@H]4O)c(OC)c3)[C@@H]2CO)ccc1O` had an inhibition in assay [8] of 17.7%. With `COc1cc(/C=C/C(=O)O[C@H]2[C@H](O[C@H]3O[C@H](C)[C@@H](O)[C@H](O)[C@@H]3O)[C@@H](O)[C@H](OCCc3ccc(O)c(OC)c3)O[C@@H]2CO[C@H]2OCC(O)(CO)[C@@H]2O)ccc1O` (stereo partly specified), the inhibition in assay [3] came out at 12.7%. As to `O=c1cc(-c2ccc(O)cc2)oc2cc(O)cc(O)c12`, the inhibition in [18] turned out to be 14%.

The compound `O=C(O)CC(OC(=O)/C=C/c1ccc(O)c(O)c1)C(=O)O` (stereo unspecified) came in with an inhibition in [17] of 4.62%.

For the compound `C[C@@H]1O[C@@H](OC[C@H]2O[C@@H](Oc3c(-c4ccc(O)c(O)c4)oc4cc(O)cc(O)c4c3=O)[C@H](O)[C@@H](O)[C@@H]2O)[C@H](O)[C@H](O)[C@H]1O`, the inhibition in assay [15] is 12.7%. On to `COc1cc(/C=C/C(=O)O)ccc1O`, for which the inhibition in assay [7] was determined as 6.68%. Consider `O=C(/C=C/c1ccc(O)cc1)OC[C@H]1O[C@@H](Oc2c(-c3ccc(O)cc3)oc3cc(O)cc(O)c3c2=O)[C@H](O)[C@@H](O)[C@@H]1O`, for which the inhibition in assay [17] was found to be 30.2%; in [19], 14.7%. Take `C[C@H]1O[C@H](OC[C@H]2O[C@@H](Oc3c(-c4ccc(O)cc4)oc4cc(O)c(O)c(O)c4c3=O)[C@H](O)[C@@H](O)[C@@H]2O)[C@@H](O)[C@@H](O)[C@@H]1O`: the inhibition in assay [15] was found to be 27.1%. In turn, `C[C@H]1O[C@H](O[C@@H]2[C@@H](O)[C@H](O)O[C@H](CO)[C@H]2OC(=O)/C=C/c2ccc(O)c(O)c2)[C@@H](O)[C@@H](O)[C@@H]1O` returned an inhibition in assay [20] of 10.9%. For `COc1cc(/C=C/C(=O)O[C@H]2[C@H](O[C@@H]3O[C@@H](C)[C@H](O)[C@@H](O)[C@H]3O[C@@H]3OC[C@@H](O)[C@@H](O)[C@@H]3O)[C@@H](O)[C@H](OCCc3ccc(O)c(O)c3)O[C@@H]2CO[C@@H]2O[C@H](CO)[C@@H](O)[C@H](O)[C@H]2O)ccc1O`, in assay [14], the inhibition stood at 15.5%.

In assay [9], `C[C@@H]1O[C@@H](O[C@@H]2[C@@H](O)[C@H](OCCc3ccc(O)c(O)c3)O[C@H](CO)[C@H]2OC(=O)/C=C/c2ccc(O)c(O)c2)[C@H](O)[C@H](O)[C@H]1O` yielded an inhibition of 25.8%.

In [4], `COc1cc(/C=C/C(=O)O[C@H]2[C@H](O[C@@H]3O[C@@H](C)[C@H](O)[C@@H](O)[C@H]3O)[C@@H](O)[C@H](OCCc3ccc(O)c(O)c3)O[C@@H]2CO)ccc1O` registered an inhibition of 21.6%. `O=C(O)/C=C/c1ccc(O)cc1` registered an inhibition in assay [12] of 8.87%. Turning to `COc1cc(/C=C/C(=O)O[C@H]2[C@H](O[C@@H]3O[C@@H](C)[C@H](O)[C@@H](O)[C@H]3O[C@@H]3OC[C@@H](O)[C@@H](O)[C@@H]3O)[C@@H](O)[C@H](OCCc3ccc(O)c(OC)c3)O[C@@H]2CO)ccc1O`, in assay [3], the inhibition was determined as 17.3%.
